Test results from the NIST ThermoML archive (doi:10.1016/j.tca.2010.12.008).

Assay: molar heat capacity at constant pressure
Settings: 101.33 kPa

CC(C)(C)P(=O)(O)C(C)(C)C [di-tert-butylphosphinic acid]
Settings | molar heat capacity at constant pressure [J/K/mol]
2.277 K, Crystal 2 | 0.028
2.67 K, Crystal 2 | 0.056
3.092 K, Crystal 2 | 0.169
3.71 K, Crystal 2 | 0.338
4.497 K, Crystal 2 | 0.591
5.284 K, Crystal 2 | 0.929
5.987 K, Crystal 2 | 1.352
6.633 K, Crystal 2 | 1.83
7.223 K, Crystal 2 | 2.337
7.813 K, Crystal 2 | 2.872
8.404 K, Crystal 2 | 3.548
9.078 K, Crystal 2 | 4.337
9.808 K, Crystal 2 | 5.322
10.74 K, Crystal 2 | 6.589
11.66 K, Crystal 2 | 7.941
12.56 K, Crystal 2 | 9.405
13.52 K, Crystal 2 | 10.93
14.44 K, Crystal 2 | 12.42
15.34 K, Crystal 2 | 13.94
16.24 K, Crystal 2 | 15.46
17.17 K, Crystal 2 | 17.04
18.15 K, Crystal 2 | 18.7
19.22 K, Crystal 2 | 20.47
20.32 K, Crystal 2 | 22.27
21.3 K, Crystal 2 | 23.93
22.28 K, Crystal 2 | 25.54
23.29 K, Crystal 2 | 27.17
24.3 K, Crystal 2 | 28.84
25.37 K, Crystal 2 | 30.69
26.44 K, Crystal 2 | 32.05
27.48 K, Crystal 2 | 33.54
28.6 K, Crystal 2 | 35.23
29.67 K, Crystal 2 | 36.78
30.74 K, Crystal 2 | 38.47
31.78 K, Crystal 2 | 40.07
32.82 K, Crystal 2 | 41.87
34.73 K, Crystal 2 | 45.11
35.2 K, Crystal 2 | 46.01
35.88 K, Crystal 2 | 47.28
36.58 K, Crystal 2 | 48.41
37.37 K, Crystal 1 | 47.62
38.02 K, Crystal 1 | 45.28
38.77 K, Crystal 1 | 45.25
39.59 K, Crystal 1 | 45.81
40.38 K, Crystal 1 | 46.52
41.16 K, Crystal 1 | 47.25
41.95 K, Crystal 1 | 48.01
42.74 K, Crystal 1 | 48.77
43.55 K, Crystal 1 | 49.65
44.37 K, Crystal 1 | 50.52
45.18 K, Crystal 1 | 51.33
46 K, Crystal 1 | 52.18
46.84 K, Crystal 1 | 53.05
47.66 K, Crystal 1 | 53.9
48.47 K, Crystal 1 | 54.74
49.31 K, Crystal 1 | 55.53
50.1 K, Crystal 1 | 56.32
50.97 K, Crystal 1 | 57.08
51.81 K, Crystal 1 | 57.9
52.63 K, Crystal 1 | 58.8
53.44 K, Crystal 1 | 59.56
54.29 K, Crystal 1 | 60.43
55.1 K, Crystal 1 | 61.3
55.94 K, Crystal 1 | 62.17
56.79 K, Crystal 1 | 63.08
57.66 K, Crystal 1 | 63.98
58.67 K, Crystal 1 | 65.08
59.34 K, Crystal 1 | 65.81
60.19 K, Crystal 1 | 66.74
61 K, Crystal 1 | 67.64
61.65 K, Crystal 1 | 68.31
62.63 K, Crystal 1 | 69.41
63.11 K, Crystal 1 | 69.95
63.56 K, Crystal 1 | 70.45
64.57 K, Crystal 1 | 71.58
65.27 K, Crystal 1 | 72.4
66 K, Crystal 1 | 73.16
66.9 K, Crystal 1 | 74.2
67.41 K, Crystal 1 | 74.76
67.94 K, Crystal 1 | 75.35
68.9 K, Crystal 1 | 76.37
69.57 K, Crystal 1 | 77.21
70.28 K, Crystal 1 | 77.94
70.64 K, Crystal 1 | 78.42
71.23 K, Crystal 1 | 79.24
71.62 K, Crystal 1 | 79.66
81.51 K, Crystal 1 | 92.05
82.47 K, Crystal 1 | 93.11
83.42 K, Crystal 1 | 94.18
84.38 K, Crystal 1 | 95.24
85.33 K, Crystal 1 | 96.41
86.29 K, Crystal 1 | 97.48
87.35 K, Crystal 1 | 98.65
88.31 K, Crystal 1 | 99.82
89.26 K, Crystal 1 | 100.89
90.32 K, Crystal 1 | 102.06
91.28 K, Crystal 1 | 103.23
92.34 K, Crystal 1 | 104.4
93.3 K, Crystal 1 | 105.58
94.36 K, Crystal 1 | 106.75
95.31 K, Crystal 1 | 107.81
96.27 K, Crystal 1 | 109.09
97.33 K, Crystal 1 | 110.16
98.39 K, Crystal 1 | 111.33
99.34 K, Crystal 1 | 112.39
100.41 K, Crystal 1 | 113.56
101.47 K, Crystal 1 | 114.74
102.53 K, Crystal 1 | 115.8
103.59 K, Crystal 1 | 116.97
104.55 K, Crystal 1 | 118.04
105.71 K, Crystal 1 | 119.32
106.78 K, Crystal 1 | 120.49
107.84 K, Crystal 1 | 121.56
108.9 K, Crystal 1 | 122.73
109.96 K, Crystal 1 | 123.9
111.02 K, Crystal 1 | 124.96
112.08 K, Crystal 1 | 126.24
113.14 K, Crystal 1 | 127.31
114.2 K, Crystal 1 | 128.48
115.27 K, Crystal 1 | 129.54
116.43 K, Crystal 1 | 130.61
117.5 K, Crystal 1 | 131.89
118.56 K, Crystal 1 | 133.17
119.72 K, Crystal 1 | 134.34
120.79 K, Crystal 1 | 135.3
121.95 K, Crystal 1 | 136.47
123.12 K, Crystal 1 | 137.64
124.18 K, Crystal 1 | 138.92
125.35 K, Crystal 1 | 139.99
126.52 K, Crystal 1 | 141.05
127.69 K, Crystal 1 | 142.22
128.85 K, Crystal 1 | 143.4
130.02 K, Crystal 1 | 144.57
131.19 K, Crystal 1 | 145.74
132.46 K, Crystal 1 | 147.02
133.53 K, Crystal 1 | 148.19
134.69 K, Crystal 1 | 149.04
135.75 K, Crystal 1 | 150.32
137.24 K, Crystal 1 | 151.28
138.41 K, Crystal 1 | 152.45
139.58 K, Crystal 1 | 153.52
141.06 K, Crystal 1 | 154.79
142.44 K, Crystal 1 | 156.07
143.93 K, Crystal 1 | 157.56
145.2 K, Crystal 1 | 158.74
146.69 K, Crystal 1 | 160.12
148.18 K, Crystal 1 | 161.4
149.88 K, Crystal 1 | 163
151.25 K, Crystal 1 | 164.38
152.74 K, Crystal 1 | 165.77
154.33 K, Crystal 1 | 167.04
155.61 K, Crystal 1 | 168.32
157.31 K, Crystal 1 | 169.71
158.79 K, Crystal 1 | 170.99
160.17 K, Crystal 1 | 172.37
162.09 K, Crystal 1 | 173.76
163.68 K, Crystal 1 | 175.25
164.95 K, Crystal 1 | 176.42
166.76 K, Crystal 1 | 177.81
168.24 K, Crystal 1 | 179.3
169.94 K, Crystal 1 | 180.79
171.64 K, Crystal 1 | 182.28
173.34 K, Crystal 1 | 183.77
174.83 K, Crystal 1 | 185.05
176.74 K, Crystal 1 | 186.86
182.79 K, Crystal 1 | 191.66
183.96 K, Crystal 1 | 192.72
185.13 K, Crystal 1 | 193.79
186.61 K, Crystal 1 | 195.06
188.1 K, Crystal 1 | 196.24
189.16 K, Crystal 1 | 197.3
190.75 K, Crystal 1 | 198.37
192.13 K, Crystal 1 | 199.65
193.62 K, Crystal 1 | 200.92
195.11 K, Crystal 1 | 202.2
196.49 K, Crystal 1 | 203.37
198.08 K, Crystal 1 | 204.65
199.57 K, Crystal 1 | 205.72
201.16 K, Crystal 1 | 207.1
202.65 K, Crystal 1 | 208.27
204.13 K, Crystal 1 | 209.55
205.72 K, Crystal 1 | 210.72
207.32 K, Crystal 1 | 212
209.02 K, Crystal 1 | 213.18
210.5 K, Crystal 1 | 214.45
212.31 K, Crystal 1 | 215.73
213.8 K, Crystal 1 | 217.01
215.5 K, Crystal 1 | 218.5
217.3 K, Crystal 1 | 219.78
218.89 K, Crystal 1 | 221.16
220.7 K, Crystal 1 | 222.76
222.5 K, Crystal 1 | 224.04
224.31 K, Crystal 1 | 225.53
225.9 K, Crystal 1 | 227.24
227.81 K, Crystal 1 | 228.62
229.72 K, Crystal 1 | 230.11
231.53 K, Crystal 1 | 231.82
233.23 K, Crystal 1 | 233.2
235.03 K, Crystal 1 | 234.69
236.84 K, Crystal 1 | 236.08
238.85 K, Crystal 1 | 237.57
240.66 K, Crystal 1 | 239.06
242.78 K, Crystal 1 | 240.77
244.7 K, Crystal 1 | 242.15
246.61 K, Crystal 1 | 243.75
248.52 K, Crystal 1 | 245.35
250.54 K, Crystal 1 | 247.05
252.55 K, Crystal 1 | 248.76
254.57 K, Crystal 1 | 250.25
256.59 K, Crystal 1 | 251.85
258.71 K, Crystal 1 | 253.44
260.62 K, Crystal 1 | 255.26
262.75 K, Crystal 1 | 257.07
264.98 K, Crystal 1 | 258.77
266.89 K, Crystal 1 | 260.69
269.22 K, Crystal 1 | 262.39
271.35 K, Crystal 1 | 264.63
273.37 K, Crystal 1 | 265.91
275.7 K, Crystal 1 | 267.4
277.82 K, Crystal 1 | 269.32
280.27 K, Crystal 1 | 271.45
282.18 K, Crystal 1 | 272.62
284.62 K, Crystal 1 | 274.96
286.96 K, Crystal 1 | 276.99
289.29 K, Crystal 1 | 279.01
291.63 K, Crystal 1 | 281.14
293.64 K, Crystal 1 | 283.17
295.98 K, Crystal 1 | 283.49
